Patent US20230002327A1, “SMALL-MOLECULE REGULATOR OF TLR8” (TSINGHUA UNIVERSITY, priority 2019, published 2023)

How the values were obtained:
[1] = system: HEK-Blue hTLR8 cell line; assay: Toxicity test of compounds (CCK-8 cell viability); type: cell-based, human; design: key to WST1 (normalized toxicity effect): viability relative to control well (background-subtracted OD), 1 = control
Experimental: In the 96-well plate used for the above-mentioned activity test of compounds (remaining 50 μL of culture medium containing cells), 5 μL of CellCountingKit-8 (CCK-8) Supermix was added to each well. Note that the introduction of air bubbles into the wells should be avoided since the air bubbles would interfere with the detection of OD value.
The culture plate was incubated in an incubator for 1 to 4 hours,
The edge of the 96-well plate could be tapped gently before reading the plate, and then the absorbance at 450 nm was measured by using the multi-mode plate reader.
Cell viability (%) was determined using the following formula: cell viability (%)=([Compound well ([…])−Background well (OD450)]/[Control well ([…])−Background well (OD450)])×100%. Among these, the background well was only added with the medium and CCK-8 reagent, the control well was only added with the medium, cells, R848 and CCK-8, and the compound wells were added with the medium, cells, R848, compounds in different concentrations, and CCK-8.

[2] = target: T1, TLR8 (Homo sapiens, UniProt Q9NR97); assay: Inhibition of R848-induced signaling in HEK-Blue hTLR8 cell line (Quanti-Blue); type: cell-based
T1 construct: host or cells: HEK-Blue hTLR8 (HEK293-derived SEAP reporter cells)
T1 sequence (Q9NR97 27-1041): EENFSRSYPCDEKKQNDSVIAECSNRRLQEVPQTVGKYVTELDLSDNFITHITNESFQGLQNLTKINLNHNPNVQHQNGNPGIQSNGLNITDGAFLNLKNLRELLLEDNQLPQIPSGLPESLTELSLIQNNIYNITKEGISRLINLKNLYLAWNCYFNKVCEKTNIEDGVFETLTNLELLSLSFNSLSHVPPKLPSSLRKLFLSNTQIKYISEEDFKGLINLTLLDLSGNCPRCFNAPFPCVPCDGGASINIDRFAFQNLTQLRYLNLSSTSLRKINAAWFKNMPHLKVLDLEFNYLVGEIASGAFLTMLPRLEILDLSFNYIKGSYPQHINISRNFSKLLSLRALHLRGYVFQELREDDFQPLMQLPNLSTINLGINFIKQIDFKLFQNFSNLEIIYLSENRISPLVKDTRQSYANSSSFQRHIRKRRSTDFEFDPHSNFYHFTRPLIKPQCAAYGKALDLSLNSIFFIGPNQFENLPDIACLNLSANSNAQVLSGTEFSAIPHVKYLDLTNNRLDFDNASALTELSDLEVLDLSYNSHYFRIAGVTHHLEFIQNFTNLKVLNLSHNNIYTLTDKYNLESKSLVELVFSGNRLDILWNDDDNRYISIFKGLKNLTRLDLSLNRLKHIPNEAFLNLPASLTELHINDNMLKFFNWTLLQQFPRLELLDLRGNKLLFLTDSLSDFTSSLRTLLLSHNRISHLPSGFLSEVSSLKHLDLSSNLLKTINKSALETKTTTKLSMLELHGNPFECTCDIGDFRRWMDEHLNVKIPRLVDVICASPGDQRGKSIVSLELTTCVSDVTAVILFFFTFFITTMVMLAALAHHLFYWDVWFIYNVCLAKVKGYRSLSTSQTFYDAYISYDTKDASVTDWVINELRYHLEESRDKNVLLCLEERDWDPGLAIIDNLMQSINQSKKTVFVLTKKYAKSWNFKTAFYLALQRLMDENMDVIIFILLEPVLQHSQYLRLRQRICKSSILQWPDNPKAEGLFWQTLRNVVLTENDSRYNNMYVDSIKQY
How it was run: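 HEK-Blue hTLR8 cells, 45,000 per well, cultured 24 h then switched to serum-free DMEM; after a further 24 h, supernatant SEAP read with Quanti-Blue at 620 nm. Inhibition computed relative to R848 and untreated-cell OD620; IC50 from curve fit.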

[3] = target: T1, TLR8; assay: ORN06-induced signaling in HEK-Blue hTLR8 cell line; type: cell-based
Experimental: HEK Blue hTLR8 cells or HEK Blue hTLR7 cells were cultured in DMEM medium supplemented with 10% fetal bovine serum, penicillin (100 U/mL) and streptomycin ([…]). Thereafter, cells were seeded in 96-well plate (45,000 cells per well), and were cultured for 24 hours in a humidified incubator (37° C., 5% CO2).
After 24 hours, the supernatant and suspending cells were aspirated and replaced with fresh serum-free DMEM. Cells were treated with 1 μg/mL of R848 (agonist of TLR7/8) or 5 μg/mL of ssRNA40/LyoVec or 5 μg/mL of ORN06/LyoVec (InvivoGen) and compounds with specified concentrations, and were placed in a humidified incubator (37° C., 5% CO2) for co-culture.
After 24 hours, 50 μL of the medium was aspirated from each well and then added to a new 96-well plate, followed by the addition of 50 μL of Quanti-Blue in each well and the incubation at 37° C. in darkness. Changes in color would occur in the […] within 60 minutes, and the absorbance was measured at 620 nm by using the multi-mode plate reader Vrioskan Flash. Inhibition rate (%)=[R848 (OD620)−Compound (OD620)]/[R848 (OD620)−Control (OD620)]×100%. Among these, the control group was only added with the same amount of cells. Finally, the software Prism 6.0 was utilized to plot a graph and calculate IC50 values. […]

[4] = target: T1, TLR8; assay: Specificity test in HEK-Blue TLR cell lines: TLR8; type: cell-based
Experimental: The selectivity of compounds for receptors in TLR family was tested in HEK-Blue cells overexpressing various TLRX (x=1 to 9) respectively. The steps of this test method were the same as those mentioned above in “Activity Test of Compounds”, except that the ligands corresponding to different TLRs were used to activate the downstream signaling in the corresponding cells. Among these, ploy (I:C) (20 μg/mL), LPS (40 ng/mL), Pam3CSK4 (100 ng/mL), Pam2CSK4 (100 ng/mL), flagellin (200 ng/mL), R848 (1 μg/mL) and ODN2006 (0.5 μM) were used to selectively activate HEK-Blue hTLR3-, hTLR4-, hTLR1/2-, hTLR2/6-, hTLR5-, hTLR7- and hTLR9-overexpressing cells, respectively.

[5] = HEK-Blue hTLR8 cell line (FIG. 1, FIG. 10)
[6] = HEK-Blue hTLR8 cell line, at a concentration of 100 μM (FIG. 12)

inhibitory effect on R848-induced signaling [2, 5]	IC50 ([2]; R848-induced signaling, HEK-Blue hTLR8 cell line, value ± standard deviation, at least triplicate)	inhibitory effect on ORN06-induced signaling ([3]; HEK-Blue hTLR8 cell line (FIG. 1))	specific inhibitory effect on HEK-Blue hTLR8 cell line ([4]; at a concentration of 20 μM (FIG. 3))	inhibitory effect on R848-induced signaling [2, 6]	Remaining R848-induced TLR8 signaling (normalized activity; ligand+DMSO = 1, untreated = 0) ([2]; HEK-Blue hTLR8 cell line, normalized, ligand+DMSO = 100% activity, untreated = 0%)	synergistic activating effect on ORN06-induced signaling [3, 6]	specific inhibitory effect on TLR8 signaling pathway ([4]; at a concentration of 100 μM (FIG. 11))	SMILES	toxicity in HEK-Blue hTLR8 cell line ([1]; even at a concentration of 100 μM (FIG. 2))	influence on cell viability ([1]; HEK-Blue hTLR8 cells, under the test conditions (FIG. 10))	WST1 (normalized toxicity effect) ([1]; normalized cell viability, HEK-Blue cell lines)
excellent inhibitory effect	0.03 ± 0.002 µM	excellent inhibitory effect	specific inhibitory effect					CSc1nnc(CCCO)n1-c1cc(C)c(C)c(C)c1 [Compound 24, 3-(5-(methylthio)-4-(3,4,5-trimethylphenyl)-4H-1,2,4-triazole-3-yl)propan-1-ol]	did not cause significant toxicity		
significant inhibitory effect				significant inhibitory effect	0.1 ± 0.1	synergistic activating effect	specific inhibitory effect	CCOCc1nc(I)c(-c2ccccc2)n1CC(C)(C)O [Compound 53, 1-[2-(ethoxymethyl)-4-iodo-5-phenyl-1H-imidazole-1-yl]-2-methylpropan-2-ol]		no influence on cell viability	0.9 ± 0.2
